# Patent US10076533B2, “Acyclic nucleoside phosphonate diesters” (The Regents of the University of California, priority 2013, dated 2018)
# Where two headings read alike, the source gives them in different places.
# Key:
# [1] = Cytotoxicity in HFF cells in parallel to HSV-2 assay; details: human, […]
# [2] = test system: Hepatitis B virus; assay: HBV replication in 2.2.15 cells, HBV DNA blot hybridization
# [3] = Cytotoxicity in HFF cells in parallel to cytomegalovirus assay; details: human, […]
# [4] = test system: HPV-18; assay: Antiviral effect in HPV-18 infected primary human keratinocyte rafts, qPCR
# [5] = Toxicity in primary human keratinocyte raft cultures by histology
# [6] = test system: HPV-16; assay: HPV-16 origin replication in HEK 293 cells, qPCR; format: cell-based
# Description: (§1) An origin-containing plasmid was co-transfected with HPV-16 E1 and E2 protein expression vectors into HEK 293 cells. At 4 hr post-transfection, cells were treated with compound dilutions and the cells were incubated for 48 hr. Replication of the virus origin was detected with DpnI and exonuclease III to remove unreplicated input bacterial plasmid DNA. Remaining replicated DNA was quantified by qPCR. Toxicity was determined by trypan blue exclusion.
# [7] = Effect of oral compounds on body weight in Balb-c mice; format: in vivo
# Description: Compounds were administered at the indicated doses by oral gavage daily for 5 days. Weights measured before and on day 6 after 5 doses.
# [8] = in vitro; details: human
# [9] = test system: Hela (HPV-18); assay: Antiproliferative activity, neutral red, Hela cervical cancer cells; details: Homo sapiens, 96 h, read-out: Cytotoxic concentration 50% (CC50) Hela (HPV-18)
# [10] = test system: Copenhagen strain of vaccinia virus; assay: microbe, parasite or virus in culture; format: cell-based
# [11] = Cytotoxicity in 2.2.15 cells by neutral red uptake; details: human
# [12] = test system: AD169 strain of human cytomegalovirus; assay: Antiviral effect in HFF cells infected with human cytomegalovirus (AD169)
# [13] = test system: HIV-192US727; assay: Anti-HIV assay in human PBMC, supernatant reverse transcriptase activity
# [14] = Cytotoxicity in MT-2 cells, flow cytometry cell counts and viability; format: cell-based, human; details: human; MT-2 cells, 72 hrs
# Description: (§2) MT-2 cells were incubated with drug for 72 hrs and harvested. Flow count beads (Beckman Coulter, Miami, Fla.) were added to the cell suspension followed by propidium iodide staining and analysis using flow cytometer and the 50% cytotoxic concentration (CC50) was calculated from the cell counts and viability.
# [15] = test system: BK virus (Gardner strain); assay: Antiviral effect in HFF cells infected with BK virus (Gardner strain), qPCR
# [16] = human
# [17] = Toxicity in HEK 293 cells by trypan blue exclusion (HPV-11 example); format: cell-based; details: human
# Description: (§3) An origin-containing plasmid was co-transfected with HPV-11 E1 and E2 protein expression vectors into HEK 293 cells. At 4 hr post-transfection, cells were treated with compound dilutions and the cells were incubated for 48 hr. Replication of the virus origin was detected with DpnI and exonuclease III to remove unreplicated input bacterial plasmid DNA. Remaining replicated DNA was quantified by qPCR. Toxicity was determined by trypan blue exclusion.
# [18] = test system: MAD-1 strain of JC virus; assay: Antiviral effect in JC virus (MAD-1) infected COS7 cells, qPCR
# [19] = African green monkey, uninfected COS7 cells
# [20] = Viability of PBMC by XTT reduction; details: human, PHA-stimulated human PBMCs
# [21] = Cytotoxicity in HFF cells in parallel to HSV-1 assay; details: human, […]
# [22] = test system: HPV-11; assay: HPV-11 origin replication in HEK 293 cells, qPCR; format: cell-based; details: for EC50: HPV-11 origin replication in HEK 293 cells, 48 hr, qPCR
# Description: as §3
# [23] = Toxicity in HEK 293 cells by trypan blue exclusion (HPV-16 example); format: cell-based; details: human
# Description: as §1
# [24] = Antiproliferative activity, neutral red, normal human fibroblasts; details: normal human fibroblasts (HFF), monolayer culture
# [25] = test system: Caski (HPV-16); assay: Antiproliferative activity, neutral red, Caski cervical cancer cells
# [26] = test system: HIV-1LAI; assay: HIV antiviral assay in MT-2 cells, p24 reduction; details: for Selectivity Index: CC50/EC50, MT-2 cells
# [27] = test system: human foreskin fibroblast (HFF) cells; assay: Cytotoxicity in HFF cells in parallel to HSV-2 assay; details: HFF cells
# [28] = test system: human foreskin fibroblast (HFF) cells; assay: Cytotoxicity in HFF cells in parallel to cytomegalovirus assay; details: HFF cells, in parallel to cytomegalovirus assay
# [29] = test system: human foreskin fibroblast (HFF) cells
# [30] = test system: MT-2 cells; assay: Cytotoxicity in MT-2 cells, flow cytometry cell counts and viability; format: cell-based, human; details: MT-2 cells, 72 hrs; read-out: CC50
# Description: as §2
# [31] = test system: human foreskin fibroblast (HFF) cells; details: uninfected HFF cells, […]
# [32] = test system: HEK 293 cells; assay: Toxicity in HEK 293 cells by trypan blue exclusion (HPV-11 example); format: cell-based
# Description: as §3
# [33] = test system: COS7 cells; details: uninfected COS7 cells, […]
# [34] = test system: Human peripheral blood monocyte (PBMC); assay: Viability of PBMC by XTT reduction; details: human PBMC, XTT reduction
# [35] = test system: human foreskin fibroblast (HFF) cells; assay: Cytotoxicity in HFF cells in parallel to HSV-1 assay; details: HFF cells, in parallel to HSV-1 assay
structure (smiles),measurement,setting,value
"CCCCCCCCCCCCCCCCCCOCCOP(=O)(CO[C@H](CO)Cn1ccc(N)nc1=O)OCc1ccccc1 (stereo partly drawn) [Compound 219, benzyl octadecyloxyethyl 1-(S)-[(3-hydroxy-2-phosphonomethoxy)propyl]cytosine]",CC50 at 3 days,[1],13.1 µM
same,EC50,"[2]; Hepatitis B virus, 168 h",0.45 µM
same,Selectivity Index,"[2]; hepatitis B virus, 2.2.15 cells",>223
same,CC50 at 14 days,[3],84.2 µM
same,Selectivity Index,[4]; HPV-18 keratinocyte rafts,>9.4
same,EC50,"[4]; Homo sapiens, Keratinocyte",1.06 µM
same,CC50,[5],> 10 µM
same,EC50,"[6]; HEK293, HPV-16 origin replication in HEK 293 cells, 48 hr, qPCR, read-out: EC50",2.23 µM
same,Selectivity Index,"[6]; HPV-16, HEK 293 cells",>4.48
same,body weight Day 6,[7]; 20 mg/kg/day oral gavage daily for 5 days,19.27 ± 1.32 (6)
same,body weight Day 0,"[7]; 20 mg/kg/day oral gavage, before dosing",19.03 ± 1.16 (6)
same,CC50,[8],> 100 µM
same,CC50,[9],2.2 µM
same,EC50,"[10]; Orthopoxvirus vaccinia, HFF, 168 h",0.09 µM
same,Selectivity Index,"[10]; vaccinia virus (Copenhagen), HFF cells",>1110
same,CC50 at 7 days,[11],> 100 µM
same,EC50,"[12]; Human betaherpesvirus 5, AD169, HFF, 336 h",< 0.03 µM
same,Selectivity Index,"[12]; human cytomegalovirus (AD169), HFF cells",>2807
same,Selectivity Index,"[13]; HIV-192US727, human PBMC",>28.7
same,EC50,"[13]; Human immunodeficiency virus 1, PBMC, 168 h",< 0.1 µM
same,CC50 at 72 h,[14],18 ± 3.6 µM
same,Selectivity Index,"[15]; BK virus (Gardner strain), HFF cells",>218
same,EC50,"[15]; Betapolyomavirus hominis, HFF, 336 h",< 0.03 µM
same,CC50 at 14 days,[16],6.54 µM
same,CC50 at 48 h,[17],> 10 µM
same,EC50,"[18]; JC polyomavirus, COS-7, 168 h",> 4 µM
same,Selectivity Index,"[18]; JC virus (MAD-1), COS7 cells",<3.2
same,CC50 at 7 days,[19],12.8 µM
same,CC50 at 7 days,[20],2.87 µM
same,CC50 at 3 days,[21],19.3 µM
same,EC50,[22]; HEK293,2.04 µM
same,Selectivity Index,"[22]; HPV-11, HEK 293 cells",>4.9
same,CC50 at 48 h,[23],> 10 µM
same,CC50 at 4 days,[24],52 µM
same,CC50,"[25]; Homo sapiens, Ca-Ski, 96 h, read-out: Cytotoxic concentration 50% (CC50) Caski (HPV-16)",2 µM
same,"fold more effective in reducing viable cell number in the cervical cancer lines than in normal, non-transformed human fibroblasts","[25]; cervical cancer lines (Caski, Hela) vs HFF",23.6 fold
same,Selectivity Index,[26],6.7
same,EC50,"[26]; Human immunodeficiency virus 1, MT2, 96 h",2.7 ± 2.1 µM
"CCCCCCCCCCCCCCCCCCOC[C@H](COP(=O)(CO[C@H](CO)Cn1ccc(N)nc1=O)OCc1ccccc1)OCc1ccccc1 (stereo partly drawn) [Compound 231, benzyl 1-O-octadecyl-2-O-benzyl-sn-glyceryl 1-(S)-[3-hydroxy-2-(phosphonomethoxy)propyl]cytosine]",CC50,[27],34.8 µM
same,CC50,[28],19 µM
same,CC50,[29],> 100 µM
same,EC50,"[10]; HFF cells infected with vaccinia virus (Copenhagen), 7 days, crystal violet, read-out: EC50",0.23 µM
same,EC50,"[12]; HFF cells infected with human cytomegalovirus (AD169), 14 days, crystal violet",< 0.03 µM
same,EC50,"[13]; HIV-192US727 infected human PBMC, 7 days, supernatant reverse transcriptase activity",< 0.3 µM
same,CC50,[30],22 ± 3 µM
same,EC50,"[15]; HFF cells infected with BK virus (Gardner strain), 14 days, qPCR",< 0.03 µM
same,CC50,[31],13.3 µM
same,CC50,[32],> 10 µM
same,EC50,"[18]; COS7 cells infected with JC virus (MAD-1), 7 days, qPCR",> 20 µM
same,CC50,[33],62.6 µM
same,CC50,[34],19 µM
same,CC50,[35],88.3 µM
same,EC50,[22],1.56 µM
same,Selectivity Index,[26],10
same,EC50,"[26]; HIV-1 infected MT-2 cells, p24 reduction, four days",2.2 ± 2.1 µM
